Data taken from US20210128674A1, “LHRH-CONJUGATED PRODIGIOSIN AND USES THEREOF” (Worcester Polytechnic Institute, priority 2019, published 2021).
“Also recorded” adds a separate entry of the source.

What was measured:
[1] = system: MDA-MB-231 human triple negative breast cancer subcutaneous tumor xenografts; assay: subcutaneous xenograft tumor shrinkage study; type: in vivo, Athymic Nude-Foxn1nu strain mice; settings: for anti-tumor effect over early, mid and late stages: 14-day, 21-day and 28-day groups, 10 mg/kg IV
Description: In this section, cell culture, tumor induction and drug injection studies were carried out. First, 20 μl of 1×10^6 MDA-MB-231 human triple negative cancer cells were cultured in T75 tissue culture flasks (CELLTREAT, Pepperell, Mass., USA). This was carried out at 37° C. until 70% confluence was reached. The cells were grown under normal atmospheric pressure levels in a “L15^+ medium” that is typically made up of: L-15 medium (ATCC, Manassas, Va., USA), supplemented with 100 I.U./ml penicillin/100 µg/ml streptomycin and 10% FBS (ATCC, Manassas, Va., USA).
Forty 4-week old Athymic Nude-Foxn1nu strain mice with individual weights of ˜17 g each was purchase from Envigo (Somerset, N.J., USA). These animals were approved for use in the current work by the University of Massachusetts Medical School Institutional Animal Care and Use Committee (UMMS IACUC) with docket #A2630-17. All of the animals were maintained and used according to the approved UMMS IACUC procedure and guideline.
Subcutaneous tumor xenografts were induced by the injection of 5.0×10^6 of MDA-MB-231 human triple negative breast cancer cells (suspended in sterile saline) into the interscapular region (for a better angiogenic response). Tumor formation was carefully assessed by palpation. Tumor growth was then monitored daily with the digital calipers. The tumor volume was calculated using the following modified ellipsoidal formula: […]
where length was the longest axis of the tumor and width is the measurement at a right angle to the length.
The mice were randomly chosen in groups of three (for each drugs injection) into their respective treatment groups. These include groups of mice with early stage (14 days after tumor induction), mid stage (21 days after tumor induction) and late stage (28 days after tumor induction) tumors. The weights of the mice and their tumor sizes were monitored and measured (using digital calipers) on a daily basis. These precise volumes and measured weights of the mice were used to guide the administration of the drugs. They were also used to monitor toxicity and side effects associated with the drugs. For each of the study groups, 3 mice each were randomly assigned to injection of 10 mg/kg of the specific drug configuration (PGS, [D-Lys6]LHRH-conjugated PGS, and DMSO).
(§1) Different groups of mice were injected intravenously with each drug through their tail veins. This was done after tumor growth for 14, 21 and 28 days. The mice were injected with 10 mg/kg per week, during the two-week periods in which the effects of drugs were investigated. Following each drug administration, the tumor sizes were monitored with calipers on a daily basis (every 24 hours). In this way, the possible tumor shrinkage, growth or elimination, were monitored on a daily basis. Furthermore, the health status of the mice was monitored on a daily basis. This was done by monitoring the mice for signs of weight loss or altered motor ability in their cages. At the end of study, the mice were euthanized, following the approved IACUC guidelines and procedures. Thereafter, tumor tissues were excised from all of the mice, including tissues from their major organs (kidneys, spleen, liver and lungs).

[2] = histopathological and toxicity studies (body weight, clinical signs, H&E of organs); type: in vivo, athymic nude mice; settings: 10 mg/kg weekly for two weeks, IV; for toxicity / side effects (clinical signs, mortality, body weight): tumor-bearing mice
Description: as §1
(§2) Following the in vivo tumor induction and growth experiments, tissues were extracted from the kidneys, spleen, lungs, liver and tumor regions. These were immediately fixed in 4% paraformaldehyde, dehydrated in a graded series of alcohol, and embedded in paraffin. Double doses of 10 mg/kg of PGS and PGS-[D-Lys6]LHRH were then administered (on a weekly basis for two weeks) to female athymic nude mice that were subcutaneously-induced with TNBC. In this way, qualitative toxicity was studied by considering differences in mortality, changes in body weight, clinical signs, gross observations and the histopathology of the lungs, kidneys and the liver at different stages of tumor development. This was done for the different drugs and cancer treatment durations. Daily observations and weight measurements were also used to check for possible animal reactions to the drugs, physiological changes, weight loss/gain, and the general well-being of the mice.
(§3) Hematoxylin and eosin (H and E) staining was also carried out. This was used for the identification of tumor necrosis and the examination of histologic changes that occurred in vital organs, following the administration of the drugs. Briefly, formalin-fixed, paraffin-embedded tissue/organs (tumor, kidneys, liver and lungs) samples (5 μm) were injected with PGS, [D-Lys6]LHRH-conjugated PGS, and DMSO. These were hydrated by passing them through decreasing concentrations (100, 90 &70%) of alcohol baths and water.
(§4) The hydrated tissue sections were then stained in hematoxylin solution for 5 mins. This was followed by rinsing with tap water for 3 minutes and differentiation in 1% acid alcohol for 5 minutes. Tap water was then used to rinse (three times) before dipping the sections in ammonia water for 2 minutes. This was followed by staining with eosin for 10 mins. The treated sliced samples were dehydrated in solution with increasing concentrations of alcohols followed by xylene. Finally, a few drops of Permount Mounting Medium were used to mount the resulting samples. The stained slides were then imaged with a 20× objective lens using a TS100F Nikon microscope (Nikon Instruments Inc., Melville, N.Y., USA) coupled with a DS-Fi3 C camera.

[3] = system: breast cancer cells with knocked down LHRH receptors (MDA-MB-231); assay: alamar blue reduction after siRNA knock down of LHRH receptors; type: cell-based, human; settings: 5 μM; 24, 48 and 72 hours; LHRH receptor knock down
MDA-MB-231 cells = assay: confocal fluorescence imaging of cellular uptake and cytotoxicity; type: cell-based, human; settings: 30 μM; 6 hours
[4] = system: breast cancer tumor (LHRH receptors on triple negative breast tumor tissue); assay: drug-tissue adhesion study with drug-coated AFM tips; type: binding, mice
Description: In an effort to understand the specificity in the targeting of triple negative breast cancer via the receptors that are over-expressed on the tumor, adhesion measurements were carried out on the control xenograft tissue samples at different stages of tumor development. Adhesion forces and interactions (between the different drug molecules and receptors on the surfaces of the tumor tissues at different stages of development) were explored in an effort to understand the interactions of the drugs with the tumor and non-tumor tissue.
Antigen retrieval was carried out on the fixed tissue. This involved exposing target antigens to receptors on a 10 μm thick microtome tissue slice. These sliced tissues were prepared for adhesion measurements in an Asylum MFP3D-Bio Atomic Force Microscope (AFM) (Asylum Research, Oxford Instrument, CA, USA). The AFM tips RESP-20 AFM tip (Bruker Santa Barbara, Calif., USA) were dip-coated with prodigiosin, or [D-Lys6]LHRH-conjugated prodigiosin using the techniques described in Obayemi et al. (J. Mech. Behav. Biomed. Mater., 68 (2017), pp. 276-286).
A simple AFM tip dip-coating technique (J. D. Obayemi et al. Materials Science and Engineering C. 66, (2016), 51-65, Hampp, E. et al. Res. 27 (22), 2891, Hutter, J. L. et al. Instrum. 64, 1868) (of the drugs) was used to coat the AFM tips at room-temperature (˜23° C.). In addition, a positive control of LHRH peptides was coated onto the AFM tips and used to determine the adhesion forces between the receptors on breast cancer tissue. All of the coated AFM tips were air-dried for about 6 h and kept in a desiccator overnight before the adhesion measurements.
The spring constants of the coated and uncoated AFM tips were measured experimentally using the thermal tune method (J. D. Obayemi, et al. Mater., 68 (2017), 276-286). This was done to obtain the actual spring constants that were used to calculate the pull-off forces from Hooke's law. The adhesion interactions were measured for the following configurations of coatings on the AFM tips and breast cancer tumor at different stages on the mice: […]

[5] = system: MDA-MB 231 induced xenograft breast tumor; assay: histopathological (H&E) and TEM examination of treated tumor tissue; type: in vivo, mice; settings: for histopathology of tumor tissue (necrosis): after treatment, H&E
Description: as §2, §3
as §4, with “The stained slides were then imaged with a 20× objective lens using a TS100F Nikon microscope (Nikon Instruments Inc., Melville, N.Y., USA) coupled with a DS-Fi3 C camera.” left out

[6] = 21-day (mid stage) group, 10 mg/kg per week IV, two weeks
[7] = 28-day (late stage) group, 10 mg/kg per week IV, two weeks
[8] = day 14 (early stage) group, two IV injections (one per week) of 10 mg/kg
[9] = listed as [D-Lys6]LHRH-conjugated PGS

Description for MDA MB 231 cells: The alamar blue cell viability and cytotoxicity assay was used to study the MDA MB 231 cells lines in the log phase of growth. MDA MB 231 cells were harvested with trypsin-EDTA in the presence of Dulbecco Phosphate Buffer (DPBS). 10^4 cells/well were then seeded in 12-well plates in L15+ medium (L15 medium with cell medium supplement of FBS and penicillin/streptomycin). […] Cell viability was monitored using the alamar blue cell viability and cytotoxicity reagent (Thermo Fisher Scientific, Waltham, Mass., USA) at times of 0 h, 18 h, 24 h, 48 h and 72 h, following drug addition. At each time point, the culture medium was replaced with 1 ml of 10% alamar blue solution (in culture medium). The 12-well plates were then incubated at 37° C. for different durations. After each time point, 100 μl of the solution incubated with alamar blue solution (ABS) was transferred into triplicate wells of a black opaque 96-well plate (Thermo Fisher Scientific, Waltham, Mass., USA).
The fluorescence intensities of the cell medium supernatant incubated with ABS were measured at 544 nm excitation and 590 nm emission using a 1420 Victor3 multi-label plate reader (Perkin Elmer, Waltham, Mass., USA). The percentage of alamar blue reduction, the percentage difference in cell population between the treated and untreated cells, and the percentage of cell growth inhibition, were determined using a combination of the ABS and cell viability studies. In this way, the cytotoxicity of the respective conjugated drug molecules was obtained from equations 1 and 2 below.
where, FIsample=fluorescence intensity of the (treated or untreated) cells, FI10% AB=fluorescence intensity of 10% alamar blue reagent (negative control) and FI10% R=fluorescence intensity of 100% reduced alamar blue (positive control).
FItreated=fluorescence intensity of treated cells and FIcells=fluorescence intensity of untreated cells

CCCCCC1=C/C(=C/c2[nH]c(-c3ccc[nH]3)cc2OC)N=C1C [PGS, 4-methoxy-5-[(Z)-(5-methyl-4-pentyl-2H-pyrrol-2-ylidene)methyl]-1H,1′H-2,2′-bipyrrole, reference compound]
resulting tumor volume [1, 6]: 90.11 mm^3 | xenograft tumor size [1, 7]: 300.3 mm^3 | final tumor sizes [1, 8]: ~29.42 mm^3 | tumor outcome, early stage [1, 8]: some tumor shrinkage | histological / pathological changes in liver, lung and kidneys (H&E) [2]: no significant histological or significant pathological changes | cell viability (percentage alamar blue reduction) in siRNA-treated cells [3]: no significant differences in cell viability | structural changes of actin filaments, vinculin and nuclei (confocal) (MDA-MB-231 cells): degradation, disorganization and depolymerization of the actin filaments and vinculin structures

LHRH-PGS: [D-Lys6]LHRH analog conjugated to prodigiosin at the epsilon (ε) amino side chain of the D-Lys6 moiety
anti-tumor effect over early, mid and late stages ([1]; listed as LHRH-prodigiosin, 10 mg/kg): decrease, shrink or eliminate tumors | anti-tumor effect over early, mid and late stages ([1]; listed as [D-Lys6]LHRH-conjugated PGS, 10 mg/kg): significant anti-tumor effects; also recorded: highest therapeutic activity | anti-tumor effect over early, mid and late stages ([1]; listed as [D-Lys6]LHRH-conjugated prodigiosin, 10 mg/kg): shrunk or eliminate the induced tumor | decrease in xenograft volume compared to unconjugated PGS [1, 6]: 95.6% | resulting tumor volume [1, 6]: 3.93 mm^3 | tumor outcome, mid stage [1, 6]: significant shrinkage | percentage reduction in xenograft tumor volume compared to unconjugated PGS [1, 7]: 83.4% | xenograft tumor size [1, 7]: 49.9 mm^3 | tumor outcome, late stage ([1]; 28-day (late stage) group, 10 mg/kg per week IV, two weeks, 10 mg/kg): significant tumor shrinkage | tumor outcome, late stage ([1]; 28-day (late stage) group, 10 mg/kg per week IV, two weeks, listed as [D-Lys6]LHRH-conjugated prodigiosin, 10 mg/kg): significant shrinkage | tumor outcome, early stage ([1]; day 14 (early stage) group, two IV injections (one per week) of 10 mg/kg, listed as LHRH-conjugated prodigiosin, 10 mg/kg): elimination of early stage breast tumors | tumor outcome, early stage ([1]; day 14 (early stage) group, two IV injections (one per week) of 10 mg/kg, listed as [D-Lys6]LHRH-conjugated PGS, 10 mg/kg): tumor elimination | tumor outcome, early stage ([1]; day 14 (early stage) group, two IV injections (one per week) of 10 mg/kg, listed as [D-Lys6]LHRH-conjugated prodigiosin, 10 mg/kg): eliminated the tumors | cytotoxicity on co-incubation of LHRH (MDA MB 231 cells): decreased the cytoxicity | percentage alamar blue reduction (cell viability) (MDA MB 231 cells; 15 μM, 25 μM, 30 μM, 18, 24, 48 and 72 h post-treatment): increasing drug concentration had a greater effect on cell growth | percentage cell growth inhibition (MDA MB 231 cells; 15 μM, 25 μM, 30 μM, 72 h): effective at inhibiting the growth | adhesion force relative to unconjugated PGS, early stage ([4]; early stage breast tumor): nearly three times | adhesion force relative to unconjugated PGS, late stage ([4]; late stage breast tumor): four times | adhesion force relative to unconjugated PGS, mid stage ([4]; mid stage breast tumor): three times | histological / pathological changes in liver, lung and kidneys (H&E) ([2]; listed as [D-Lys6]LHRH-PGS): did not induce any degeneration in the primary organs | histological / pathological changes in liver, lung and kidneys (H&E) [2, 9]: no significant histological or significant pathological changes; also recorded: no evidence of liver cell hyaline degeneration and necrosis; also recorded: no pulmonary edema or hyperplasia; also recorded: glomerular volume of the kidneys was normal; also recorded: no chemotherapeutic drug-induced histological changes and tumor metastasis | toxicity / side effects (clinical signs, mortality, body weight) ([2]; listed as LHRH-prodigiosin): No clinical signs, differences in mortality, or changes in body weight | toxicity / side effects (clinical signs, mortality, body weight) ([2]; listed as [D-Lys6]LHRH-conjugated prodigiosin): minimal; also recorded: without any evidence of toxicity | cell viability (percentage alamar blue reduction) in siRNA-treated cells [3]: no significant differences in cell viability | structural changes of tumor cells/tissue (TEM) ([5]; 21-day and 28-day treatment groups): greater structural changes | histopathology of tumor tissue (necrosis) [5]: exhibited disorder and different sizes | histopathology of tumor tissue (necrosis) [5, 9]: higher levels of necrosis in the tumors | structural changes of actin filaments, vinculin and nuclei (confocal) (MDA-MB-231 cells): more evident
